≈ marks a conversion by molar mass, not a printed value. Like-named read-outs stand apart in the source and are kept apart here. Peptide text beside a SMILES is read from it.
Experiments:
S. hiroshimensis [1] = assay: Elicitor screening, supernatants in disc diffusion assays against B. subtilis; assay type: cell-based, Streptomyces hiroshimensis; details: S. hiroshimensis grown with ~33 μM elicitor, 5 days; supernatant on B. subtilis disc diffusion
Protocol: For the high-throughput-elicitor screening portion of this example, the procedure is described for S. hiroshimensis. An identical procedure was used for S. lavendulae and A. keratiniphila. […] The culture was incubated at 30° C./250 rpm for two days. Then, the mycelia cell mass was pelleted by centrifugation, the supernatant discarded, and a stock solution of 100 mg/mL cell mass was generated in R4 medium. The stock solution was used to prepare the appropriate volume (see below) of R4 medium containing 0.5 mg/mL mycelia cell mass in a 250 mL Erlenmeyer flask. The suspension was homogenized by stirring at room temperature. Subsequently, a MultiFlow Dispenser (from Biotek, Inc.) was used to dispense 150 μL of the suspension into each well of six sterile round bottom 96 well plates (from Corning, Inc.). […] Then each plate was covered with a BREATHE-EASY® sealing membrane (from MilliporeSigma) and cultured at 30° C./200 rpm for 5 days. Humidity was maintained in the shaker/incubator by incubating several flasks containing sterile water.

A. keratiniphila [2] = assay: Elicitor screening, supernatants in liquid bioassay against E. coli; assay type: cell-based, Amycolatopsis kerathiniphila; details: A. keratiniphila grown with ~33 μM elicitor; supernatant on E. coli, OD600 nm
Protocol: (§1) For the high-throughput-elicitor screening portion of this example, the procedure is described for S. hiroshimensis. An identical procedure was used for S. lavendulae and A. keratiniphila. […] The culture was incubated at 30° C./250 rpm for two days. Then, the mycelia cell mass was pelleted by centrifugation, the supernatant discarded, and a stock solution of 100 mg/mL cell mass was generated in R4 medium. The stock solution was used to prepare the appropriate volume (see below) of R4 medium containing 0.5 mg/mL mycelia cell mass in a 250 mL Erlenmeyer flask. The suspension was homogenized by stirring at room temperature. Subsequently, a MultiFlow Dispenser (from Biotek, Inc.) was used to dispense 150 μL of the suspension into each well of six sterile round bottom 96 well plates (from Corning, Inc.). Candidate elicitors were added from a commercially-available 502-member Natural Products Library (from Enzo Life Sciences, Inc.) using a CYBI-WELL™ automated liquid transfer robot (from CyBio AG). A volume of 0.5 μL was transferred from the compound library into each well to give a final concentration of ^˜33 μM. Then each plate was covered with a BREATHE-EASY® sealing membrane (from MilliporeSigma) and cultured at 30° C./200 rpm for 5 days. Humidity was maintained in the shaker/incubator by incubating several flasks containing sterile water.
Assays against E. coli were also carried out. In this case, broader elicitation screens were conducted using a ˜500-member natural product library as the source of potential inducers. To increase the throughput of the assays, liquid bioassays were used. […]
From the elicitor plates, after culturing for 5 days, the plates were spun down in a 96-well plate centrifuge and the supernatants (10 μL) transferred to fresh 96-well assay plates, each well containing 100 μL LB-E. coli culture, with the E. coli cells inoculated to an initial OD600 nm OD600 nm of 0.002. The assay plates were cultured at 37° C./200 rpm overnight (10-12 h) and OD600 nm was then determined using a plate reader. […]

P. aeruginosa ATCC 27853 = assay: Minimal inhibitory concentration (CLSI methods); assay type: cell-based
Protocol: (§2) Antibacterial assays with taylorflavin B (8) were carried out by Micromyx, LLC in accordance with methods from the Clinical and Laboratory Standards Institute. Minimal inhibitory concentrations were determined with the following strains: E. coli ATCC 25922, A. baumannii ATCC 19606, V. cholerae BAA-2163, N. gonorrhoeae ATCC 49226, P. aeruginosa ATCC 27853, K. pneumoniae MMX 214. S. aureus ATCC 29213, S. aureus MMX 2011, S. pneumoniae ATCC 49619, S. pyogenes MMX 6253, S. agalactiae MMX 6189, E. faecalis ATCC 29212, E. faecalis MMX 486, B. subtilis ATCC 6633, C. difficile ATCC 700057, B. fragilis ATCC 25285. Assays with taylorflavin A (7) were carried in-house according to the same protocols.

E. coli ATCC 25922 = assay: Minimal inhibitory concentration (CLSI methods); assay type: cell-based
Protocol: as §2

B. subtilis ATCC 6633 = assay: Minimal inhibitory concentration (CLSI methods); assay type: cell-based
Protocol: as §2

S. aureus ATCC 29213 = assay: Minimal inhibitory concentration (CLSI methods); assay type: cell-based
Protocol: as §2

E. coli = assay: In-house bioactivity assays of induced peaks and purified taylorflavins; assay type: cell-based
S. hiroshimensis [3] = assay: Elicitor screening, supernatants in liquid bioassay against E. coli; assay type: cell-based, Streptomyces hiroshimensis; details: S. hiroshimensis grown with ~33 μM elicitor; supernatant on E. coli, OD600 nm
Protocol: as §1, with “A volume of 0.5 μL was transferred from the compound library into each well to give a final concentration of ^˜33 μM.” left out
(§3) Assays against E. coli were also carried out. In this case, broader elicitation screens were conducted using a ˜500-member natural product library as the source of potential inducers. To increase the throughput of the assays, liquid bioassays were used. Rather than manually spotting each disc, the supernatants were screened by robotically transferring the supernatant from the elicitor plate to 96-well plates inoculated with the E. coli test strain.
(§4) From the elicitor plates, after culturing for 5 days, the plates were spun down in a 96-well plate centrifuge and the supernatants (10 μL) transferred to fresh 96-well assay plates, each well containing 100 μL LB-E. coli culture, with the E. coli cells inoculated to an initial OD600 nm OD600 nm of 0.002. The assay plates were cultured at 37° C./200 rpm overnight (10-12 h) and OD600 nm was then determined using a plate reader. To generate the plot in FIG. 3, the OD600 nm from each well was divided by the average OD600 nm from the entire plate and multiplied by 100 to give the percent growth. This normalization was carried out to account for plate-to-plate variation in growth rates.

S. lavendulae [4] = assay: as above; assay type: cell-based, Streptomyces lavendulae; details: S. lavendulae grown with ~33 μM elicitor; supernatant on E. coli, OD600 nm
Protocol: as §1, §3
as §4, with “rates. The results for the entire library are shown for S. lavendulae in FIG. 3. The two wells with the highest stimulation (301, 302) and highest inhibition (303, 304) are indicated.” for “rates.”

S. cebuensis [5] = assay: Elicitor screening, supernatants on E. coli cultures (OD600 nm); assay type: cell-based, Saccharopolyspora cebuensis; details: S. cebuensis grown with elicitor, supernatant on E. coli
Protocol: Wild-type S. cebuensis cultures were transferred to 96 well-plates and each well was robotically supplemented with a compound from a commercial small molecule library as a source of elicitors. […] To grow the cells, the plates were incubated for a defined period. […] The OD600 nm from each well was normalized and the % E. coli growth thus obtained was plotted as a function of each elicitor, allowing one to identify at least one elicitor corresponding to a second activity greater than the first activity.

A. keratiniphila [6] = assay: Elicitor screening, supernatants in disc diffusion assays against B. subtilis; assay type: cell-based, Amycolatopsis kerathiniphila; details: A. keratiniphila grown with ~33 μM elicitor, 5 days; supernatant on B. subtilis disc diffusion
Protocol: as §1, with “Then each plate was covered with a BREATHE-EASY® sealing membrane (from MilliporeSigma) and cultured at 30° C./200 rpm for 5 days. Humidity was maintained in the shaker/incubator by incubating several flasks containing sterile water.” left out
(§5) The resulting agar plates were assessed visually, and subsequently examined visually for halos. To generate FIG. 2, the halo diameter, if any, was measured and categorized as none (n), weak (w), medium (m), or strong (s) inhibition. […]

S. lavendulae [7] = assay: as above; assay type: cell-based, Streptomyces lavendulae; details: S. lavendulae grown with ~33 μM elicitor, 5 days; supernatant on B. subtilis disc diffusion
Protocol: as §1, with “Then each plate was covered with a BREATHE-EASY® sealing membrane (from MilliporeSigma) and cultured at 30° C./200 rpm for 5 days. Humidity was maintained in the shaker/incubator by incubating several flasks containing sterile water.” left out
as §5

S. cebuensis [8] = assay: Validation of elicitors: agar disc diffusion assays; assay type: cell-based, Saccharopolyspora cebuensis; details: supernatants of S. cebuensis grown with elicitor

COc1cc(NC(C)CCCN)c2ncccc2c1 (centres unmarked) [primaquine]
induction of anti-B. subtilis metabolite(s) (S. hiroshimensis [1]): appeared to elicit anti-B. subtilis metabolite(s)

COC(=O)[C@H](Cc1ccccc1)NC(=O)[C@@H](N)CC(=O)O [aspartame] (H-Asp-Phe-OMe)
effect of elicitor-induced metabolome on E. coli growth (A. keratiniphila [2]): enhanced E. coli growth

Cn1nc2[nH]c(=O)n(C)c(=O)c2nc1=O [Taylorflavin A]
minimal inhibitory concentration (MIC) (P. aeruginosa ATCC 27853): 25 µg/mL (≈ 120 µM) | minimal inhibitory concentration (MIC) (E. coli ATCC 25922): 37.5 µg/mL (≈ 179 µM) | minimal inhibitory concentration (MIC) (B. subtilis ATCC 6633): >64 µg/mL | minimal inhibitory concentration (MIC) (B. subtilis ATCC 6633; listed as taylorflavin A): Significantly weaker activity | minimal inhibitory concentration (MIC) (S. aureus ATCC 29213): >64 µg/mL | minimal inhibitory concentration (MIC) (S. aureus ATCC 29213; listed as taylorflavin A): Significantly weaker activity | antibiotic activity / inhibition of E. coli growth (E. coli): antibiotic activity

CC12CC3CC(C)(C1)CC(N)(C3)C2 [memantine]
effect of elicitor-induced metabolome on E. coli growth (S. hiroshimensis [3]): inhibited E. coli growth best

O[C@H]1[C@H](O)[C@@H](O)[C@H](O)[C@@H](O)[C@H]1O [inositol]
effect of elicitor-induced metabolome on E. coli growth (S. lavendulae [4]): inhibited it

CN(C)CC[C@@H](c1ccc(Cl)cc1)c1ccccn1 [dexchlorpheniramine]
effect of elicitor-induced metabolome on E. coli growth (S. hiroshimensis [3]): most enhanced E. coli growth

Cn1cc[nH]c1=S [methimazole]
effect of elicitor-induced metabolome on E. coli growth (S. cebuensis [5]): stimulated E. coli growth best

CC(C)NCC(O)c1ccc(O)c(O)c1 (centres unmarked) [isoproterenol]
effect of elicitor-induced metabolome on E. coli growth (S. lavendulae [4]): support E. coli growth best

COc1cc2oc(=O)ccc2cc1O [isoscopoletin]
induction of zones of inhibition against B. subtilis (A. keratiniphila [6]): gave rise to zones of inhibition

CCN(CC)CCOC(=O)c1ccc(N)cc1 [procaine]
effect of elicitor-induced metabolome on E. coli growth (S. cebuensis [5]): inhibited it | induction of anti-B. subtilis metabolite(s) (S. hiroshimensis [1]): appeared to elicit anti-B. subtilis metabolite(s)

C[C@H](CCC(=O)O)[C@H]1CC[C@H]2[C@@H]3[C@H](O)C[C@@H]4C[C@H](O)CC[C@]4(C)[C@H]3CC[C@]12C [chenodiol]
effect of elicitor-induced metabolome on E. coli growth (S. lavendulae [4]): support E. coli growth best

NC(=O)CN1CCCC1=O [piracetam]
effect of elicitor-induced metabolome on E. coli growth (S. cebuensis [5]): stimulated E. coli growth best

N[C@H]1C(O)O[C@H](CO)[C@@H](O)[C@@H]1O (some centres unmarked) [glucosamine]
effect of elicitor-induced metabolome on E. coli growth (S. hiroshimensis [3]): most enhanced E. coli growth

CC(=O)O[C@H]1C(=O)[C@@]2(C)[C@H]([C@H](OC(=O)c3ccccc3)[C@]3(O)C[C@H](O)C(C)=C1C3(C)C)[C@]1(OC(C)=O)CO[C@@H]1C[C@@H]2O [baccatin III]
induction of zones of inhibition against B. subtilis (A. keratiniphila [6]): gave rise to zones of inhibition

Cc1cn([C@H]2C[C@H](N=[N+]=[N-])[C@@H](CO)O2)c(=O)[nH]c1=O [AZT]
effect of elicitor-induced metabolome on E. coli growth (A. keratiniphila [2]): produce growth-inhibitory compounds

CCN1CCCC1CNC(=O)c1cc(S(N)(=O)=O)ccc1OC (centres unmarked) [sulpiride]
effect of elicitor-induced metabolome on E. coli growth (A. keratiniphila [2]): produce growth-inhibitory compounds

CC(=O)OC1CN2CCC1CC2 (centres unmarked) [aceclidine]
effect of elicitor-induced metabolome on E. coli growth (S. hiroshimensis [3]): most enhanced E. coli growth

CC[C@@H](CO)NC(=O)[C@@H]1C=C2c3cccc4[nH]cc(c34)C[C@H]2N(C)C1 [methylergonovine]
effect of elicitor-induced metabolome on E. coli growth (S. hiroshimensis [3]): inhibited E. coli growth best

NC(=O)NC1NC(=O)NC1=O (centres unmarked) [allantoin]
effect of elicitor-induced metabolome on E. coli growth (S. lavendulae [4]): inhibited it

COc1ccc2c(=O)cc(-c3ccccc3OC)oc2c1 [7,2′-dimethoxyflavone]
induction of anti-B. subtilis metabolite(s) (S. lavendulae [7]): appeared to induce synthesis of anti-B. subtilis metabolite(s)

CCCCC(CC)COC(=O)CC(C(=O)OCC(CC)CCCC)S(=O)(=O)[O-].[Na+] (centres unmarked) [Na-docusate]
effect of elicitor-induced metabolome on E. coli growth (S. cebuensis [5]): stimulated E. coli growth best

NS(=O)(=O)c1cc(C(=O)O)c(NCc2ccco2)cc1Cl [furosemide]
halo of growth-inhibition in agar disc diffusion (S. cebuensis [8]): halo of growth-inhibition

Reference: patent publication US12436145B2, “Cryptic antibiotics and methods for detecting bioactive cryptic metabolites” (THE TRUSTEES OF PRINCETON UNIVERSITY, priority 2019, dated 2025)
